From patent publication EP1082127B1 (WARNER-LAMBERT COMPANY LLC, priority 1998, dated 1999)

Tests used:
Ich-2 enzyme = biological target: T1, Ich-2 enzyme (Homo sapiens, UniProt P49662); assay: Ich-2 Colorimetric Dose-Response (IC50) Assay; assay type: biochemical; conditions: enzyme 64 nM, 60 µM Ac-Leu-Glu-Val-Asp-pNA; read-out: ICH2 IC50 (Caspase 4)
T1 sequence (P49662 81-270 limits assumed): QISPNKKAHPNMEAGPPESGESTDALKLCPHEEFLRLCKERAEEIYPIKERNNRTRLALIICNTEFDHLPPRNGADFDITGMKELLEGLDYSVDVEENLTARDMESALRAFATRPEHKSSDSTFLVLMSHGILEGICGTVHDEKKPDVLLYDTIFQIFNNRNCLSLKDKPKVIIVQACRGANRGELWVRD
T1 sequence (P49662 290-377 limits assumed): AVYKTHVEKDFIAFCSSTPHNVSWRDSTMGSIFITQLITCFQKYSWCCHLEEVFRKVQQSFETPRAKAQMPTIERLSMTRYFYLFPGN
Experimental: Diluted inhibitor stocks are prepared by two-fold serial dilution from a primary stock whose concentration is selected (based on screening results or on prior attempts at IC50 evaluation) to achieve approximately 95% inhibition in the most concentrated well. Aliquots of each dilution are transferred to a microtitre plate in triplicate.
ICE enzyme is diluted to approximately 24 nM in HGE buffer (100 mM Hepes pH 7.5, 0.5 mM EDTA, 20% glycerol, 0.1% Bovine Serum Albumin (BSA), and activated by adding dithiothreitol (DTT) to a final concentration of 5 mM. The activated enzyme is then aliquoted into wells containing inhibitor or vehicle, and the plate is preincubated for 60 minutes at ambient temperature. Substrate (Ac-Tyr-Val-Ala-Asp-pNA) is added to each well to a final concentration of 50 µM, and plates are placed in the microtitre plate-reader thermostated to 25°C. Beginning 5 minutes after addition of substrate, absorbance (405 nm) of wells is monitored for 1 hour, and activity is calculated as the mean rate of change in absorbance during this interval.
Inhibition of Ich-2 enzyme is assayed as described above for ICE, except that enzyme is used at 64 nM, and 60 µM of the Ich-2-specific substrate Ac-Leu-Glu-Val-Asp-pNA is used instead of the ICE substrate Ac-Tyr-Val-Ala-Asp-pNA.

[1] = system: IL-1β production in human peripheral blood mononuclear cells (PBMCs); assay: PBMC Cellular Assay - IC50 Determinations (LPS-stimulated IL-1β production, ELISA); assay type: cell-based; conditions: human PBMCs stimulated overnight with 10 ng/mL LPS, mature IL-1β by ELISA
Summary of the method: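 Ficoll-isolated human PBMCs (10^6/well, RPMI with 2% human AB serum) were stimulated overnight with LPS 10 ng/mL (E. coli 0111:B4) with or without compound. Mature IL-1β in medium measured by ELISA; viability checked by MTT over a further 4 h.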

ICE [2] = biological target: T2, ICE (Homo sapiens, UniProt P29466); assay: ICE Colorimetric Dose-Response (IC50) Assay; assay type: biochemical; conditions: 60 minutes preincubation, 50 µM Ac-Tyr-Val-Ala-Asp-pNA, 25°C
T2 sequence (P29466 120-297 limits assumed): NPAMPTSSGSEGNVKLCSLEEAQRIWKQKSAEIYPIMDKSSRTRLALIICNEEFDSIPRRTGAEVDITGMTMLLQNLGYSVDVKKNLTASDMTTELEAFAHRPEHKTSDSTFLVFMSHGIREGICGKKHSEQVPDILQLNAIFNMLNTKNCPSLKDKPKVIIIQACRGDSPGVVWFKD
T2 sequence (P29466 317-404 limits assumed): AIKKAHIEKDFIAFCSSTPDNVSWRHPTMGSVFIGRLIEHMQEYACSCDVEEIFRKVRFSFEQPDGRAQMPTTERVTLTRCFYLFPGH
Summary of the method: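 Human ICE (~24 nM in HGE buffer, pH 7.5, activated with 5 mM DTT) preincubated 60 min at ambient temperature with two-fold serial inhibitor dilutions, in triplicate. Ac-Tyr-Val-Ala-Asp-pNA added at 50 µM; A405 followed for 1 h at 25°C starting 5 min after substrate, activity taken as mean rate.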

ICE [3] = biological target: T2, ICE; assay: ICE inhibition, Ki determination (fluorogenic substrate Ac-Tyr-Val-Ala-Asp-AMC); assay type: biochemical; conditions: 15 µM Ac-Tyr-Val-Ala-Asp-AMC, 0.5 nM enzyme, 30°C, reversible competitive model

Compound	IC50 (Ich-2 enzyme) [µM]	IC50 [1] [µM]	IC50 (ICE [2]) [µM]	Ki (ICE [3]) [µM]
CC(C)C(CC(=O)NCCc1cn(C)c2ccccc12)C(=O)NC(CC(=O)O)C(=O)CNS(=O)(=O)CC12CCC(CC1=O)C2(C)C (stereo not shown) [Example 31, 5-(7,7-Dimethyl-2-oxo-bicyclo[2.2.1]hept-1-ylmethanesulfonylamino)-3-(3-methyl-2-{[2-(1-methyl-1H-indol-3-yl)-ethylcarbamoyl]-methyl}-butyrylamino)-4-oxo-pentanoic acid]	1.24	0.24	0.0059	0.0004
CCOC1OC(=O)CC1NC(=O)C(CC(=O)NCCc1c[nH]c2ccccc12)C(C)C (stereo not shown) [Example 36, N^1-(2-Ethoxy-5-oxo-tetrahydro-furan-3-yl)-N^4-[2-(1H-indol-3-yl)-ethyl]-2-isopropyl-succinamide]	101	1.3	0.599	0.63
CC(C)C(CC(=O)N(C)CCc1cn(C)c2ccccc12)C(=O)NC(C=O)CC(=O)O (stereo not shown) [Example 21, 3-[3-Methyl-2-({methyl-[2-(1-methyl-1H-indol-3-yl)-ethyl]-carbamoyl}-methyl)-butyrylamino]-4-oxo-butyric acid]	209	7.5	0.13	0.028
CC(=O)c1ccc2[nH]cc(CCNC(=O)CC(C(=O)NC(CC(=O)O)C(=O)CNS(=O)(=O)CC34CCC(CC3=O)C4(C)C)C(C)C)c2c1 (stereo not shown) [Example 33, 3-(2-{[2-(5-Acetyl-1H-indol-3-yl)-ethylcarbamoyl]-methyl}-3-methyl-butyrylamino)-5-(7,7-dimethyl-2-oxo-bicyclo[2.2.1]hept-1-ylmethanesulfonylamino)-4-oxo-pentanoic acid]	3.09	1.6	0.023	0.0065
CC(C)C(CC(=O)N(C)CCn1cnc2ccccc21)C(=O)NC(C=O)CC(=O)O (stereo not shown) [Example 57, 3-(2-{[(2-Benzoimidazol-1-yl-ethyl)-methyl-carbamoyl]-methyl}-3-methyl-butyrylamino)-4-oxo-butyric acid]	38	3.75	0.227	0.0229
CC(C)C(CC(=O)NCCc1c[nH]c2ccccc12)C(=O)NC(CC(=O)O)C(=O)CNS(=O)(=O)CC12CCC(CC1=O)C2(C)C (stereo not shown) [Example 16, 5-(7,7-Dimethyl-2-oxo-bicyclo[2.2.1]hept-1-ylmethanesulfonylamino)-3-(2-{[2-(1H-indol-3-yl)-ethylcarbamoyl]-methyl}-3-methyl-butyrylamino)-4-oxo-pentanoic acid]	1.47	0.35	0.0051	0.0025
CC(C)C(CC(=O)NCCCc1ccc(O)cc1)C(=O)NC(CC(=O)O)C(=O)CNS(=O)(=O)CC12CCC(CC1=O)C2(C)C (stereo not shown) [Example 17, 5-(7,7-Dimethyl-2-oxo-bicyclo[2.2.1]hept-1-ylmethanesulfonylamino)-3-{3-methyl-2-[[3-(4-hydroxyphenyl)-propylcarbamoyl]-methyl]-butyrylamino}-4-oxo-pentanoic acid]	4.68	2.25	0.079	0.0329
CCOC1OC(=O)CC1NC(=O)C(CC(=O)NCCc1c[nH]c2c(C)cccc12)C(C)C (stereo not shown) [Example 45, N^1-(2-Ethoxy-5-oxo-tetrahydro-furan-3-yl)-N^4-[2-(7-methyl-1H-indol-3-yl)-ethyl]-2-isopropyl-succinamide]	174	2.6	0.75	0.037
CCOC1OC(=O)CC1NC(=O)C(CC(=O)NCCc1cn(C)c2ccccc12)C(C)C (stereo not shown) [Example 37, N^1-(2-Ethoxy-5-oxo-tetrahydro-furan-3-yl)-2-isopropyl-N^4-[2-(1-methyl-1H-indol-3-yl)-ethyl]-succinamide]	128	2	0.581	0.0297
CCOC1OC(=O)CC1NC(=O)C(CC(=O)NCCn1c(C)nc2ccccc21)C(C)C (stereo not shown) [Example 46, N^1-(2-ethoxy-5-oxotetrahydro-furan-3-yl)-2-isopropyl-N^4-[2-(2-methyl-benzoimidazol-1-yl)-ethyl]-succinamide]	367	6.5	0.438	0.0284
CC(C)C(CC(=O)NCCn1cnc2ccccc21)C(=O)NC(C=O)CC(=O)O (stereo not shown) [Example 53, 3-{2-[(2-Benzoimidazol-1-yl-ethylcarbamoyl)-methyl]-3-methyl-butyrylamino}-4-oxo-butyric acid]	32.5	8.3	0.0737	0.02
CC(C)C(CC(=O)NCCc1c[nH]c2cc(F)ccc12)C(=O)NC(CC(=O)O)C(=O)CNS(=O)(=O)CC12CCC(CC1=O)C2(C)C (stereo not shown) [Example 20, 5-(7,7-Dimethyl-2-oxo-bicyclo[2.2.1]hept-1-ylmethanesulfonylamino)-3-(2-{[2-(6-fluoro-1H-indol-3-yl)-ethylcarbamoyl]-methyl}-3-methyl-butyrylamino)-4-oxo-pentanoic acid]	62	2.45	0.011	0.0015
CC(C)C(CC(=O)NCCCc1cccnc1)C(=O)NC(CC(=O)O)C(=O)CNS(=O)(=O)CC12CCC(CC1=O)C2(C)C (stereo not shown) [Example 29, 5-(7,7-Dimethyl-2-oxo-bicyclo[2.2.1]hept-1-ylmethanesulfonylamino)-3-{3-methyl-2-[(3-pyridin-3-yl-propylcarbamoyl)-methyl]-butyrylamino}-4-oxo-pentanoic acid]	4.79	1.9	0.113	0.0245
